Test results published in US4737506A, “Anti-arteriosclerotic pyridyl or imidazolyl derivatives of carbonyloxyalkyl hantzsch esters” (Kowa Co., Ltd., priority 1984, dated 1988).

System: thromboxane B2 (TXB2) formation
Assay: Percent inhibition against thromboxane B2 (TXB2) formation in collagen-stimulated PRP from mice after oral administration (RIA)
Assay type: in vivo, ddY male mouse
Settings: Mus musculus, blood collected 1 hour later, 12.5 μg/ml collagen, TXB2 5 minutes later; for inhibition at 30 mg/kg: 30 mg/kg oral; for inhibition at 100 mg/kg: 100 mg/kg oral
Protocol: Using a ddY male mouse having a body weight of 35-40 g, one of the representative compounds of this invention was administered orally. One hour later, citrated blood was collected. PRP (platelet-rich plasma) was separated. Aggregation of platelets by the addition of 12.5 μg/ml of collagen was observed by an aggregometer. The amount of thromboxane B2 (a stable metabolite of thromboxane A2) formed 5 minutes later in the liquid reaction mixture was measured by the RIA method. Results are shown in Table 1, in terms of percent inhibition against the formation of thromboxane B2 (TXB2).

`COC(=O)C1=C(C)NC(C)=C(C(=O)OCCOC(=O)C=Cc2ccc(Cn3ccnc3)cc2)C1c1ccccc1F` (stereo not shown) [Ex. 14, 3-Methyl 5-[2-[3-[4-(1-imidazolylmethyl)phenyl]acryloyloxy]ethyl]2,6-dimethyl-4-(2-fluorophenyl)-1,4-dihydropyridine-3,5-dicarboxylate] showed an inhibition at 30 mg/kg of 52% and an inhibition at 100 mg/kg of 83%.
With `CCOC(=O)C1=C(C)NC(C)=C(C(=O)OCCCOC(=O)c2ccc(OCCn3ccnc3)cc2)C1c1cccc([N+](=O)[O-])c1` (stereo not shown) [Ex. 6, 3-Ethyl 5-[3-[4-[2-(1-imidazolyl)ethoxyl]benzoyloxy]propyl]2,6-dimethyl-4-(3-nitrophenyl)-1,4-dihydropyridine-3,5-dicarboxylate] the inhibition at 30 mg/kg was 74% and the inhibition at 100 mg/kg was 95%.
`COC(=O)C1=C(C)NC(C)=C(C(=O)OCCOC(=O)C=Cc2ccc(Cn3ccnc3)cc2)C1c1cccc([N+](=O)[O-])c1` (stereo not shown) [Ex. 8, 3-Methyl 5-[2-[3-[4-(1-imidazolylmethyl)-phenyl]acryloyloxy]ethyl]2,6-dimethyl-4-(3-nitrophenyl)-1,4-dihydropyridine-3,5-dicarboxylate] was tested, and the inhibition at 30 mg/kg was 60% and the inhibition at 100 mg/kg was 72%.
`COC(=O)C1=C(C)NC(C)=C(C(=O)OCCOC(=O)c2ccc(OCCn3ccnc3)cc2)C1c1cccc(Cl)c1Cl` (stereo not shown) [Ex. 16, 3-Methyl 5-[2-[4-[2-(1-imidazolyl)ethoxy]-benzoyloxy]ethyl]2,6-dimethyl-4-(2,3-dichlorophenyl)-1,4-dihydropyridine-3,5-dicarboxylate] was tested, and the inhibition at 30 mg/kg was 75% and the inhibition at 100 mg/kg was 94%.
For `CCOC(=O)C1=C(C)NC(C)=C(C(=O)OCCOC(=O)c2ccc(OCCn3ccnc3)cc2)C1c1cccc([N+](=O)[O-])c1` (stereo not shown) [Ex. 2, 3-Ethyl 5-[2-[4-[2-(1-imidazolyl)-ethoxy]-benzoyloxy]-ethyl]2,6-dimethyl-4-(3-nitrophenyl)-1,4-dihydropyridine-3,5-dicarboxylate], the inhibition at 30 mg/kg was 42% and the inhibition at 100 mg/kg was 72%.
